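The compound was tested at five concentrations on cells cultured in 96-well plates, with a 48-hour exposure period. TGI marks complete inhibition of growth.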
What was measured:
Test in all cases: growth of human tumour cells (NCI), 48 h
[1] = test system: TK-10 renal
[2] = test system: SK-OV-3 ovarian
[3] = test system: IGROV1 ovarian
[4] = test system: HS 578T breast
[5] = test system: M14 melanoma
[6] = test system: ACHN renal
[7] = test system: CCRF-CEM leukemia
[8] = test system: CAKI-1 renal
[9] = test system: HOP-62 NSCLC
[10] = test system: UACC-62 melanoma
[11] = test system: KM12 colon
[12] = test system: A498 renal
[13] = test system: SNB-19 CNS
[14] = test system: SN12C renal
[15] = test system: HT29 colon
[16] = test system: OVCAR-8 ovarian
[17] = test system: COLO 205 colon
[18] = test system: OVCAR-5 ovarian
[19] = test system: U251 CNS
[20] = test system: SNB-75 CNS
[21] = test system: OVCAR-4 ovarian
[22] = test system: HCC-2998 colon
[23] = test system: NCI-H23 lung
[24] = test system: RPMI-8226 leukemia
[25] = test system: HL-60(TB) leukemia
[26] = test system: HOP-92 NSCLC
[27] = test system: MDA-MB-435
[28] = test system: DU-145 prostate
[29] = test system: UO-31 renal
[30] = test system: MCF7 breast
[31] = test system: SF-268 CNS
[32] = test system: T-47D breast
[33] = test system: K-562 leukemia
[34] = test system: MDA-N
[35] = test system: EKVX NSCLC
[36] = test system: HCT-116 colon
[37] = test system: NCI/ADR-RES ovarian
[38] = test system: SK-MEL-5 melanoma
[39] = test system: NCI-H522 lung
[40] = test system: HCT-15 colon
[41] = test system: SW-620 colon
[42] = test system: UACC-257 melanoma
[43] = test system: SR leukemia
[44] = test system: SK-MEL-2 melanoma
[45] = test system: NCI-H460 lung
[46] = test system: RXF 393 renal
[47] = test system: SK-MEL-28 melanoma
[48] = test system: PC-3 prostate
[49] = test system: MALME-3M melanoma
[50] = test system: NCI-H226 lung
[51] = test system: BT-549 breast
[52] = test system: OVCAR-3 ovarian
[53] = test system: LOX IMVI melanoma
[54] = test system: 786-0 renal
[55] = test system: MDA-MB-231 breast
[56] = test system: A549 NSCLC
[57] = test system: SF-539 CNS
[58] = test system: SF-295 CNS
[59] = test system: MOLT-4 leukemia

## O=C(O)C(Cc1cccs1)C(=O)O
[1]
  TGI: > 100 µM
[2]
  TGI: > 100 µM
[3]
  TGI: > 100 µM
[4]
  TGI: > 100 µM
[5]
  TGI: > 100 µM
[6]
  TGI: > 100 µM
[7]
  TGI: > 100 µM
[8]
  TGI: > 100 µM
[9]
  TGI: > 100 µM
[10]
  TGI: > 100 µM
[11]
  TGI: > 100 µM
[12]
  TGI: > 100 µM
[13]
  TGI: > 100 µM
[14]
  TGI: > 100 µM
[15]
  TGI: > 100 µM
[16]
  TGI: > 100 µM
[17]
  TGI: > 100 µM
[18]
  TGI: > 100 µM
[19]
  TGI: > 100 µM
[20]
  TGI: > 100 µM
[21]
  TGI: > 100 µM
[22]
  TGI: > 100 µM
[23]
  TGI: > 100 µM
[24]
  TGI: > 100 µM
[25]
  TGI: > 100 µM
[26]
  TGI: > 100 µM
[27]
  TGI: > 100 µM
[28]
  TGI: > 100 µM
[29]
  TGI: > 100 µM
[30]
  TGI: > 100 µM
[31]
  TGI: > 100 µM
[32]
  TGI: > 100 µM
[33]
  TGI: > 100 µM
[34]
  TGI: > 100 µM
[35]
  TGI: > 100 µM
[36]
  TGI: > 100 µM
[37]
  TGI: > 100 µM
[38]
  TGI: > 100 µM
[39]
  TGI: > 100 µM
[40]
  TGI: > 100 µM
[41]
  TGI: > 100 µM
[42]
  TGI: > 100 µM
[43]
  TGI: > 100 µM
[44]
  TGI: > 100 µM
[45]
  TGI: > 100 µM
[46]
  TGI: > 100 µM
[47]
  TGI: > 100 µM
[48]
  TGI: > 100 µM
[49]
  TGI: > 100 µM
[50]
  TGI: > 100 µM
[51]
  TGI: > 100 µM
[52]
  TGI: > 100 µM
[53]
  TGI: > 100 µM
[54]
  TGI: > 100 µM
[55]
  TGI: > 100 µM
[56]
  TGI: > 100 µM

## COC1C(=O)CCC2(CO2)C1(O)C1(C)OC1CCC(C)C (stereo not drawn)
[2]
  TGI: > 100 µM
[3]
  TGI: > 100 µM
[57]
  TGI: > 100 µM
[4]
  TGI: > 100 µM
[5]
  TGI: > 100 µM
[6]
  TGI: > 100 µM
[7]
  TGI: > 100 µM
[8]
  TGI: > 100 µM
[9]
  TGI: > 100 µM
[10]
  TGI: > 100 µM
[11]
  TGI: > 100 µM
[12]
  TGI: > 100 µM
[13]
  TGI: > 100 µM
[14]
  TGI: > 100 µM
[15]
  TGI: > 100 µM
[16]
  TGI: > 100 µM
[17]
  TGI: > 100 µM
[18]
  TGI: > 100 µM
[19]
  TGI: > 100 µM
[20]
  TGI: > 100 µM
[58]
  TGI: > 100 µM
[21]
  TGI: > 100 µM
[22]
  TGI: > 100 µM
[23]
  TGI: > 100 µM
[24]
  TGI: > 100 µM
[25]
  TGI: > 100 µM
[26]
  TGI: > 100 µM
[27]
  TGI: > 100 µM
[28]
  TGI: > 100 µM
[29]
  TGI: > 100 µM
[30]
  TGI: > 100 µM
[31]
  TGI: > 100 µM
[32]
  TGI: > 100 µM
[33]
  TGI: > 100 µM
[34]
  TGI: > 100 µM
[35]
  TGI: > 100 µM
[36]
  TGI: > 100 µM
[37]
  TGI: > 100 µM
[38]
  TGI: > 100 µM
[39]
  TGI: > 100 µM
[40]
  TGI: > 100 µM
[41]
  TGI: > 100 µM
[59]
  TGI: > 100 µM
[42]
  TGI: > 100 µM
[43]
  TGI: > 100 µM
[45]
  TGI: > 100 µM
[46]
  TGI: > 100 µM
[47]
  TGI: > 100 µM
[48]
  TGI: > 100 µM
[49]
  TGI: > 100 µM
[50]
  TGI: > 100 µM
[51]
  TGI: > 100 µM
[52]
  TGI: > 100 µM
[54]
  TGI: > 100 µM
[55]
  TGI: > 100 µM

## COc1ccc(-c2cn3c(n2)sc2cc(C)ccc23)cc1
[1]
  TGI: 47.3 µM
[2]
  TGI: 98.9 µM
[3]
  TGI: 42.1 µM
[57]
  TGI: 33.7 µM
[4]
  TGI: 67.5 µM
[5]
  TGI: > 100 µM
[6]
  TGI: > 100 µM
[7]
  TGI: > 100 µM
[8]
  TGI: > 100 µM
[9]
  TGI: 81.3 µM
[10]
  TGI: 41.9 µM
[11]
  TGI: > 100 µM
[12]
  TGI: 47.4 µM
[13]
  TGI: > 100 µM
[14]
  TGI: 88.7 µM
[15]
  TGI: > 100 µM
[16]
  TGI: 47.2 µM
[17]
  TGI: 19.6 µM
[18]
  TGI: > 100 µM
[19]
  TGI: 21.8 µM
[20]
  TGI: 37.3 µM
[58]
  TGI: 52.5 µM
[21]
  TGI: 83.8 µM
[22]
  TGI: 69.6 µM
[23]
  TGI: > 100 µM
[24]
  TGI: > 100 µM
[25]
  TGI: 23 µM
[26]
  TGI: 20.8 µM
[27]
  TGI: 63.2 µM
[28]
  TGI: > 100 µM
[29]
  TGI: > 100 µM
[30]
  TGI: 95.7 µM
[31]
  TGI: 78.7 µM
[32]
  TGI: > 100 µM
[33]
  TGI: > 100 µM
[34]
  TGI: 58.4 µM
[35]
  TGI: 39.7 µM
[36]
  TGI: > 100 µM
[37]
  TGI: > 100 µM
[38]
  TGI: 14.3 µM
[39]
  TGI: 51.4 µM
[40]
  TGI: > 100 µM
[41]
  TGI: > 100 µM
[59]
  TGI: > 100 µM
[42]
  TGI: 24.2 µM
[43]
  TGI: > 100 µM
[44]
  TGI: 37.1 µM
[45]
  TGI: > 100 µM
[46]
  TGI: 35.8 µM
[47]
  TGI: > 100 µM
[48]
  TGI: 50.9 µM
[49]
  TGI: > 100 µM
[50]
  TGI: 62.2 µM
[51]
  TGI: 87.4 µM
[52]
  TGI: > 100 µM
[53]
  TGI: > 100 µM
[54]
  TGI: 59.8 µM
[55]
  TGI: 42.4 µM
[56]
  TGI: > 100 µM

## CC1(C)N=C(N)N=C(N)N1c1cccc(CSc2ccccc2)c1
[1]
  TGI: > 100 µM
[2]
  TGI: > 100 µM
[3]
  TGI: 25 µM
[57]
  TGI: > 100 µM
[4]
  TGI: 68 µM
[5]
  TGI: 11.2 µM
[6]
  TGI: > 100 µM
[8]
  TGI: > 100 µM
[9]
  TGI: > 100 µM
[10]
  TGI: > 100 µM
[11]
  TGI: > 100 µM
[12]
  TGI: > 100 µM
[13]
  TGI: > 100 µM
[14]
  TGI: > 100 µM
[15]
  TGI: > 100 µM
[16]
  TGI: > 100 µM
[17]
  TGI: 29.1 µM
[18]
  TGI: > 100 µM
[19]
  TGI: > 100 µM
[20]
  TGI: 43.8 µM
[58]
  TGI: > 100 µM
[21]
  TGI: > 100 µM
[22]
  TGI: > 100 µM
[23]
  TGI: > 100 µM
[24]
  TGI: > 100 µM
[25]
  TGI: 13.3 µM
[26]
  TGI: > 100 µM
[27]
  TGI: > 100 µM
[28]
  TGI: > 100 µM
[29]
  TGI: > 100 µM
[30]
  TGI: > 100 µM
[31]
  TGI: > 100 µM
[32]
  TGI: > 100 µM
[33]
  TGI: > 100 µM
[34]
  TGI: > 100 µM
[35]
  TGI: > 100 µM
[36]
  TGI: > 100 µM
[37]
  TGI: > 100 µM
[38]
  TGI: 13.5 µM
[39]
  TGI: 27.3 µM
[40]
  TGI: > 100 µM
[41]
  TGI: > 100 µM
[59]
  TGI: > 100 µM
[42]
  TGI: > 100 µM
[43]
  TGI: 14.2 µM
[44]
  TGI: > 100 µM
[45]
  TGI: > 100 µM
[46]
  TGI: 95.9 µM
[47]
  TGI: > 100 µM
[48]
  TGI: > 100 µM
[49]
  TGI: > 100 µM
[50]
  TGI: > 100 µM
[51]
  TGI: > 100 µM
[52]
  TGI: > 100 µM
[53]
  TGI: > 100 µM
[54]
  TGI: > 100 µM
[55]
  TGI: > 100 µM
[56]
  TGI: > 100 µM
